Test results: ChEMBL document CHEMBL6071143, “Discovery of a potent melatonin-based inhibitor of quinone reductase-2 with neuroprotective and neurogenic properties” (Eur J Med Chem, 2024)
Converted amounts (≈) assume the structure as drawn. The source made the active and inactive calls. No cut-off for these calls is given here.

How the values were obtained:
[1] = target: T1, Ribosyldihydronicotinamide dehydrogenase [quinone] (Homo sapiens, UniProt P16083); assay: Inhibition of human QR2 expressed in Escherichia coli preincubated with BNAH or NRH followed by menadione addition by FLUOstar plate reader assay
T1 sequence (P16083 whole entry): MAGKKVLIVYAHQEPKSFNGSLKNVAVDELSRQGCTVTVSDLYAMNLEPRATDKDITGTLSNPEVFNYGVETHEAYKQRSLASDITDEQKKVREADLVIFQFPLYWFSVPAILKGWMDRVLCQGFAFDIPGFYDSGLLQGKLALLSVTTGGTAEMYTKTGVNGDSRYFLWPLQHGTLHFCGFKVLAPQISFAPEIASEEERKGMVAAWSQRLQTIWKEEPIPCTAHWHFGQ

[2] = system: SH-SY5Y; assay: Neuroprotective activity against R/O induced human SH-SY5Y cells oxidative stress model assessed as cell survival at 1 uM preincubated for 24 hrs followed by rotenone oligomycin A addition and measured after 24 hrs by MTT assay; type: functional; conditions: read-out: Survival
[3] = Aqueous solubility of compound incubated for 24 hrs by UV-spectra analysis; type: physicochemical
[4] = Displacement of 2-[125I]iodomelatonin from human MT1R transfected in CHO cells incubated for 30 mins; type: cell-based
[5] = Antioxidant activity assessed as oxygen radical scavenging by measuring trolox equivalents preincubated for 15 mins followed by AAPH addition and measured after 80 mins by fluorescence plate reader assay; type: functional; conditions: time 95.0 min
[6] = system: SH-SY5Y; assay: Cytotoxicity against human SH-SY5Y cells at 1 to 100 uM incubated for 24 hrs by MTT method; type: toxicity, cell-based; conditions: dose 1-100 µM
[7] = Displacement of 2-[125I]iodomelatonin from human MT2R transfected in CHO cells incubated for 30 mins; type: cell-based
[8] = Octanol-water partition coefficient, logD of the compound at pH 6; type: physicochemical
[9] = system: SH-SY5Y; assay: Neuroprotective activity against R/O induced human SH-SY5Y cells oxidative stress model assessed as increase in cell survival preincubated for 24 hrs followed by rotenone oligomycin A addition and measured after 24 hrs by MTT assay; type: functional, cell-based; conditions: dose 0.01-10 µM, time 48.0 hrs
[10] = Octanol-water partition coefficient, logD of the compound at pH 8; type: physicochemical
[11] = Octanol-water partition coefficient, logD of the compound at pH 12; type: physicochemical
[12] = Octanol-water partition coefficient, logD of the compound at pH 4; type: physicochemical
[13] = Octanol-water partition coefficient, logD of the compound at pH 3; type: physicochemical
[14] = Octanol-water partition coefficient, logD of the compound at pH 2; type: physicochemical
[15] = system: NSC; assay: Neurogenic activity in C57BL/6 mouse primary NSCs assessed as increase in number of TuJ-1 cells at 10 uM incubated for 10 days by DAPI staining based fluorescence confocal microscopy; type: functional, cell-based; conditions: time 10.0 day
[16] = target: T2, Amine oxidase [flavin-containing] A (Homo sapiens, UniProt P21397); assay: Inhibition of human MAO-A expressed in baculovirus infected BTI insect cells preincubated for 15 mins followed by p-tyramine addition by amplex red reagent based fluorescence microplate reader assay
T2 sequence (P21397 whole entry): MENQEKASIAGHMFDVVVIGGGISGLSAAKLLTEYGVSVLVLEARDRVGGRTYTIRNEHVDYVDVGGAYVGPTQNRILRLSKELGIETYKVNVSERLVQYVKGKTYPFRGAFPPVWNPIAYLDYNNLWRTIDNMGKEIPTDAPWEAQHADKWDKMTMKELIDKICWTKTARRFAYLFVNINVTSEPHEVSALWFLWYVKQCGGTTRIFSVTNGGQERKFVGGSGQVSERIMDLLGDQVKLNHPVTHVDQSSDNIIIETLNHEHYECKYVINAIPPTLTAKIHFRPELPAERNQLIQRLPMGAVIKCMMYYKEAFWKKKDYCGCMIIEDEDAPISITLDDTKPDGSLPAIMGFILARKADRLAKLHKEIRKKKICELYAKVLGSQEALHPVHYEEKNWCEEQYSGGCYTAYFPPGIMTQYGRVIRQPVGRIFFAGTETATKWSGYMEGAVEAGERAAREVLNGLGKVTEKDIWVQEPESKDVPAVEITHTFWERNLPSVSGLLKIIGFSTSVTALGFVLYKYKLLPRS

[17] = Octanol-water partition coefficient, logD of the compound at pH 10; type: physicochemical
[18] = Octanol-water partition coefficient, logD of the compound at pH 1.2; type: physicochemical
[19] = target: T3, Polyunsaturated fatty acid 5-lipoxygenase (Homo sapiens, UniProt P09917); assay: Inhibition of human LOX-5 preincubated for 10 mins followed by AA addition and measured after 20 mins in presence of ATP by fluorescence based assay
T3 sequence (P09917 whole entry): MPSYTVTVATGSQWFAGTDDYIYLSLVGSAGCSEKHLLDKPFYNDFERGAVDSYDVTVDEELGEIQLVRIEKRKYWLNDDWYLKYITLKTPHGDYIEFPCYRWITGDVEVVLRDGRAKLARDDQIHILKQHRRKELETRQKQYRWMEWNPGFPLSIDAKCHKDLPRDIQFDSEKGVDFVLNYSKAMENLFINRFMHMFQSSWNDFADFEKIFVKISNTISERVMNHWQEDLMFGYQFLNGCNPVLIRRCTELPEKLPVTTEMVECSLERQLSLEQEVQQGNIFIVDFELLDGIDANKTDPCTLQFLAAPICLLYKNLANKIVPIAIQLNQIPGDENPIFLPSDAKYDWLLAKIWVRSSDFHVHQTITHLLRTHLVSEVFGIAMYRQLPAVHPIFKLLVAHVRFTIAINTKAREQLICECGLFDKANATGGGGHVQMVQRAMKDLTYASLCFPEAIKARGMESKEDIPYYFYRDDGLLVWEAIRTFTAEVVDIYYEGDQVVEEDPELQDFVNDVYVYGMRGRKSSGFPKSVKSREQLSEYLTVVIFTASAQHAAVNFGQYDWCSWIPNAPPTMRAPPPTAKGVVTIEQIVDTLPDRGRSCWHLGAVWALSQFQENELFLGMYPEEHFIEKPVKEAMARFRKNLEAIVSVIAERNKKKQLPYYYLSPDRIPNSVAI

[20] = Octanol-water partition coefficient, logD of the compound at pH 11; type: physicochemical
[21] = target: T4, Amine oxidase [flavin-containing] B (Homo sapiens, UniProt P27338); assay: Inhibition of human MAO-B expressed in baculovirus infected BTI insect cells preincubated for 15 mins followed by p-tyramine addition by amplex red reagent based fluorescence microplate reader assay; type: cell-based
T4 sequence (P27338 whole entry): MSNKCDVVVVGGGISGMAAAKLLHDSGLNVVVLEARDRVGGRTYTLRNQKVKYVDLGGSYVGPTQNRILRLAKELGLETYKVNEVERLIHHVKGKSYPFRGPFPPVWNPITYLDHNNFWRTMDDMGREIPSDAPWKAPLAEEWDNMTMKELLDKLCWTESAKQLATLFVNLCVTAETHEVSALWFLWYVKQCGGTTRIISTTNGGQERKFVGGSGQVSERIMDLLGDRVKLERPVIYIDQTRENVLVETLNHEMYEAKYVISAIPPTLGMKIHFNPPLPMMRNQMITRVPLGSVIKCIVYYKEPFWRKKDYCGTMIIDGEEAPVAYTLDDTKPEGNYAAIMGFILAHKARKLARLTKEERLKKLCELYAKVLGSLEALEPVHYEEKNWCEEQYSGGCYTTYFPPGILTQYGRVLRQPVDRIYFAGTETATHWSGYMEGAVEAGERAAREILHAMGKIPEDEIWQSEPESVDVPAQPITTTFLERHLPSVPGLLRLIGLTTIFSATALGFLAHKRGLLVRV

[22] = Octanol-water partition coefficient, logD of the compound at pH 7; type: physicochemical
[23] = Dissociation constant, pKa of compound; type: physicochemical
[24] = system: NSC; assay: Neurogenic activity in C57BL/6 mouse primary NSCs assessed as increase in number of MAP-2 cells at 10 uM incubated for 10 days by DAPI staining based fluorescence confocal microscopy; type: functional, cell-based; conditions: time 10.0 day
[25] = Octanol-water partition coefficient, logD of the compound at pH 1; type: physicochemical
[26] = Octanol-water partition coefficient, logD of the compound at pH 5; type: physicochemical
[27] = system: CHO; assay: Displacement of 2-[125I]iodomelatonin from human MT1R transfected in CHO cells at 10 uM incubated for 30 mins relative to control; type: cell-based
[28] = Octanol-water partition coefficient, logD of the compound at pH 7.4; type: physicochemical
[29] = Octanol-water partition coefficient, logD of the compound at pH 9; type: physicochemical
[30] = Octanol-water partition coefficient, logD of the compound at pH 6.5; type: physicochemical

Question: For `COc1ccc2c(n1)c(CCNC(=O)c1ccco1)c1n2Cc2cccnc2-1`, which IC50 [1] is on record?
Answer: Its IC50 is 5 nM.

Question: With `COc1ccc2[nH]cc(CCNC(C)=O)c2c1` [MELATONIN] as the molecule, how does the viability at 1 µM [2] read?
Answer: The viability at 1 µM was 43%.

Question: And the solubility at 24 h [3]?
Answer: The solubility at 24 h was 6.64 mM (≈ 1540 µg/mL).

Question: What about the Ki [4] of the same molecule?
Answer: The Ki was 0.00027 µM.

Question: And the Activity [5]?
Answer: Its Activity is 2.3.

Question: And the Activity [6]?
Answer: Its Activity is “Non-Toxic”.

Question: What about the Ki [7] of the same molecule?
Answer: The Ki was 0.13 nM.

Question: Which results are given for `COc1ccc2c(c1)CC(c1c[nH]c3ccc(OC)cc13)N2` (stereo unspecified)?
Answer: logD [8]: 3.26; Activity [9]: Dose-Dependent Effect; logD [10]: 3.31; viability at 1 µM [2]: 50%; logD [11]: 3.31; logD [12]: 2.28; logD [13]: 1.78; logD [14]: 1.67; Activity [15]: Active; IC50 [16]: 2540 nM; logD [17]: 3.31; logD [18]: 1.65; IC50 [19]: 5.3 µM; logD [20]: 3.31; IC50 [21]: 3.69 µM; logD [22]: 3.31; pKa [23]: 5.26; Activity [24]: Active; logD [25]: 1.66; solubility at 24 h [3]: 0.0329 mM (≈ 9.68 µg/mL); logD [26]: 2.97; Activity [27]: 58%; Ki [4]: ~10 µM; logD [28]: 3.31; Activity [5]: 2.3; Activity [6]: Non-Toxic; logD [29]: 3.31; Ki [7]: 620 nM; logD [30]: 3.3
